Data on seven molecules can be found in PubChem BioAssay AID200 (DTP/NCI, 2004).

The test deals with B6C3F1 mice, B16 melanoma ip, median survival T/C. Description: NCI In Vivo Anticancer Drug Screen. Data for tumor model B16 Melanoma (intraperitoneal) in B6C3F1 mice. Particulars: endpoint: median survival time, schedule: Q01DX009 (ip), higher = longer survival. The method, boiled down:
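Readout: survival or tumor size in treated mice relative to vehicle controls (T/C). Model uses transplantable tumors grown in mice.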

Where [1] appears, read: dose: 25.0 mg/kg/injection, vehicle: saline.
Where [2] appears, read: dose: 50.0 mg/kg/injection, vehicle: saline.
The mark [3] stands for this setting: dose: 100.0 mg/kg/injection, vehicle: saline.
[4] abbreviates: dose: 200.0 mg/kg/injection, vehicle: saline.
[5] abbreviates: dose: 50.0 mg/kg/injection, vehicle: Klucel (hydroxypropylcellulose) (HPC).

Several values for one entry are separate records, joined by “and”; a condition that tells them apart may be missing. Equal entries are not always repeated. Toxic doses and inconclusive results are not listed.

In the case of `O=C(O)CNc1ccc(O)cc1`, the T/C by setting is: under setting [1], 104 % of control; under setting [2], 105 % of control; (dose: 75.0 mg/kg/injection, vehicle: saline) 105 % of control; under setting [3], 112 % of control and 121 % of control; (dose: 150.0 mg/kg/injection, vehicle: saline) 105 % of control; under setting [4], 100 % of control and 101 % of control.

With `O=C(O)CNC(=O)C(CSCc1ccccc1)NC(=O)OCc1ccccc1` (configuration not stated), the T/C is 95 % of control under setting [5]; 95 % of control (dose: 50.0 mg/kg/injection, vehicle: saline with Tween-80); 107 % of control (dose: 100.0 mg/kg/injection, vehicle: Klucel (hydroxypropylcellulose) (HPC)); 88 % of control (dose: 100.0 mg/kg/injection, vehicle: saline with Tween-80); 102 % of control (dose: 200.0 mg/kg/injection, vehicle: Klucel (hydroxypropylcellulose) (HPC)); 90 % of control (dose: 200.0 mg/kg/injection, vehicle: saline with Tween-80).

In the case of `NC1(C(=O)O)CCCc2ccc(N(CCCl)CCCl)cc21` (configuration not stated), the T/C by setting is: (dose: 2.5 mg/kg/injection, vehicle: saline) 120 % of control; (dose: 10.0 mg/kg/injection, vehicle: saline with Tween-80) 121 % of control; (dose: 10.0 mg/kg/injection, vehicle: saline) 157 % of control; (dose: 20.0 mg/kg/injection, vehicle: saline) 189 % of control.

In the case of `O=C1OC(=O)[C@H]2[C@@H]1[C@H]1C=C[C@@H]2OC1=O`, the T/C is 102 % of control (dose: 12.5 mg/kg/injection, vehicle: saline); 101 % of control under setting [1]; 106 % of control under setting [2]; 102 % of control under setting [3]; 99 % of control under setting [4].

On to `Cc1c2ccc3ccccc3c2c[n+]2ccccc12`, for which the T/C (dose: 1.25 mg/kg/injection, vehicle: Klucel (hydroxypropylcellulose) (HPC)) is 104 % of control; the T/C (dose: 2.5 mg/kg/injection, vehicle: Klucel (hydroxypropylcellulose) (HPC)) is 100 % of control; the T/C (dose: 5.0 mg/kg/injection, vehicle: Klucel (hydroxypropylcellulose) (HPC)) is 112 % of control; the T/C (dose: 10.0 mg/kg/injection, vehicle: Klucel (hydroxypropylcellulose) (HPC)) was 96 % of control; the T/C (dose: 20.0 mg/kg/injection, vehicle: Klucel (hydroxypropylcellulose) (HPC)) is 100 % of control.

On to `CNC(=O)OCc1c(COC(=O)NC)c(-c2ccc(Cl)c(Cl)c2)n2c1Cc1ccccc1C2`, for which the T/C is, setting by setting: (dose: 25.0 mg/kg/injection, vehicle: distilled water + Tween-80) 165 % of control; (dose: 50.0 mg/kg/injection, vehicle: distilled water + Tween-80) 194 % of control and 203 % of control; (dose: 100.0 mg/kg/injection, vehicle: distilled water + Tween-80) 92 % of control.

For the molecule `COC(=O)NC1C(C)OC(OC2C/C=C(/C)C3C=CC4C(OC5CC(OC6CC(O)C(OC7CC(O)C(OC)C(C)O7)C(C)O6)C(O)C(C)O5)C(C)CC(C)C4C3(C)/C(O)=C3\C(=O)OC4(CC(C)C(CO)=CC4/C=C\2C)C3=O)CC1(C)[N+](=O)[O-]` (configuration not stated), the T/C (dose: 12.5 mg/kg/injection, vehicle: Klucel (hydroxypropylcellulose) (HPC)) was 100 % of control and 104 % of control; the T/C (dose: 25.0 mg/kg/injection, vehicle: Klucel (hydroxypropylcellulose) (HPC)) was 110 % of control and 106 % of control; the T/C under setting [5] was 121 % of control.
